Test results reported in patent US7795254B2, “Benzomorpholine derivatives and methods of use” (Amgen Inc., priority 2007, dated 2010).
Like-named read-outs stand apart in the source and are kept apart here.

What was measured:
[1] = target: cytochrome P450 3A4 (Homo sapiens, UniProt P08684); assay: Incubation with recombinant human cytochrome P450 3A4; type: in vitro ADME; details: fortified with NADPH
Excerpt: The following compounds identified in Table 16 below were the significant metabolites formed in all species.

[2] = tested on: liver microsomes; assay: In vitro metabolite profiling in liver microsomes; type: in vitro ADME; details: 10 μM, liver microsomes 1 mg/mL (human, mouse, rat, monkey, rabbit, dog), NADPH, 37° C., 1 hr
Method: Incubation mixtures were prepared including [14C]-Compound A (10 μM, 0.5 μCi), liver microsomes at 1 mg/mL (human, mouse, rat, monkey, rabbit, dog), MgCl2 (3 mM), and potassium phosphate buffer (100 mM). The reaction was started by adding NADPH (1 mM) and incubations were carried out in a shaking water bath maintained at 37° C. for 1 hr. The reactions were stopped by adding 1 volume of ACN:MeOH 1:1 mixture; vortex mixed; centrifuged at 16000×g. The supernatants were analyzed on a reverse phase HPLC (Agilent 1100, Agilent systems, DE) in line with a radiomatic (β-ram, IN/US systems, FL) detector and an LTQ ion-trap mass spectrometer (ThermoFisher, San Jose, Calif.). HPLC separations were carried out on a phenyl-hexyl luna (150×4.6 mm, 5 μm, Phenomenex Inc) column maintained at 40° C. at a flow rate of 1 mL/min. A binary mobile phase consisting of 10 mM ammonium formate in H2O (solvent A) and 0.1% formic in MeOH (solvent B) was employed under the following gradient conditions: 0 to 2 min, 95% A; 2 to 10 min, 95 to 75% A; 10 to 40 min, 75 to 60% A; 40 to 60 min, 60 to 55% A; 60 to 77 min, 55 to 25% A; 77 to 78 min, 25 to 5% A; 78 to 83 min, 5% A; 83 to 84 min, 5 to 95% A; 84 to 90 min, 95% A. The flow post-column was split such that 80% went to radiomatic detector and the remaining 20% to MS. […]

[3] = tested on: Rat Liver Microsome; assay: Rat liver microsome clearance; type: in vitro ADME; details: rat liver microsomes
Excerpt: (§1) Table 7 provides additional information about the pharmacokinetic profiles of reference compound 1 and Compound A. The data contained in this table was obtained using methods well known in the art.

[4] = Rat pharmacokinetic profile; details: in vivo
Excerpt: as §1

[5] = Exposure (AUC) in the rat corneal angiogenesis study; type: in vivo; details: for AUC: female, CD, rat, in vivo, oral, Table 3, free base
Method: (§2) Tables 2 through 6 below describe the results obtained in the rat corneal in vivo model of angiogenesis for (1) reference compound (free base) 1, (2) Compound A (free base), and (3) the hydrochloride salt of Compound A. A VEGF-induced rat corneal angiogenesis assay was performed using the following procedure: • In Life Aspects: Female CD rats weighing approximately 250 grams were randomized into one of six treatment groups. On the day of surgery the rats were temporarily anesthetized using isoflurane. A vertical incision was made on the midline of the cornea and a pocket was created to separate the connective tissue layers of the stroma. The distance between the apex of the pocket and the limbus was approximately 1.8 mm. A presoaked nylon filter disk was inserted to the apex of the pocket (in the case of the control treatment group, the disks were soaked in a buffer containing bovine serum albumin; in the remaining treatment groups, the disks were soaked in buffer containing bovine serum albumin plus human VEGF to induce angiogenesis). The different treatment groups were then dosed daily with either vehicle (Ora Plus™, a commercially available vehicle) or a designated amount of test compound formulated in vehicle. • Study Termination and Analysis: After seven days, the rats were euthanized and the implanted corneas photographed using a Nikon SV-3 Ophthalmic Slit Lamp. Numerical data were generated from the digital images using the Metamorph image analysis system (Universal Imaging). Three endpoints were analyzed on each corneal image: (1) disk placement distance from the limbus, (2) number of vessels intersecting a perpendicular line at the midpoint of the disk placement distance, and (3) blood vessel area, as determined by thresholding and automated pixel counting. Only the number of blood vessels is shown in the tables as this endpoint correlated well with the blood vessel area. • Statistical Analysis: Results were analyzed with the StatView statistical program using one-way ANOVA, followed by Fisher's least significant difference test. Data are presented as mean±SE and P<0.05 was considered significant. AUC and ED50 values were calculated using methods well known in the art.

[6] = tested on: Human Liver Microsome; assay: Human liver microsome clearance; type: in vitro ADME; details: human liver microsomes
Excerpt: as §1

[7] = tested on: VEGF-induced rat corneal angiogenesis; assay: VEGF-induced rat corneal angiogenesis assay; type: in vivo; details: for Average # of Vessels: 7 days
Method: as §2

[8] = tested on: HUVEC; assay: VEGF induced proliferation, HUVEC cell-based assay; details: Homo sapiens

Chain of cytochrome P450 3A4 (P08684 whole entry): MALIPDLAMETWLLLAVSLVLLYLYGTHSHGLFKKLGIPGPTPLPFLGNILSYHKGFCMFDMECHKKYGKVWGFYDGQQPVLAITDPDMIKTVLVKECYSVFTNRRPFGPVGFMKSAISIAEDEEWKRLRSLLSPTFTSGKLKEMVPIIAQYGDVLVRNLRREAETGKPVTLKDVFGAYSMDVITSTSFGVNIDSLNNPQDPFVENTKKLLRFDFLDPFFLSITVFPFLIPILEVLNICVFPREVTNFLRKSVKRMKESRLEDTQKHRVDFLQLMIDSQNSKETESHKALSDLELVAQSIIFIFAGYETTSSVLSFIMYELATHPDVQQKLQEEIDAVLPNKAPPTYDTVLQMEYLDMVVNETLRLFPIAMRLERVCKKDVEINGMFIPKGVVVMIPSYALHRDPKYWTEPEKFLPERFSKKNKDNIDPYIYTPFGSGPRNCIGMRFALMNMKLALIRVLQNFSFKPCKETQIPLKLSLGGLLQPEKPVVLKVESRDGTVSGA

COc1cc2nccc(Oc3ccc4c(c3)OCCN4C(=O)Nc3cc(C)on3)c2cc1OC [Compound A, 7-((6,7-bis(methyloxy)-4-quinolinyl)oxy)-N-(5-methyl-3-isoxazolyl)-2,3-dihydro-4H-1,4-benzoxazine-4-carboxamide]
metabolites formed with recombinant human cytochrome P450 3A4 [1]: These same metabolites were also formed
turnover in liver microsomes [2]: Substantial turnover
Rat Liver Microsome [3]: 45 µL/min/mg
clearance ([4]; intravenous): 6.67 mL/min/kg
Vd ([4]; intravenous, read-out: Rat Volume of Distribution): 1 L/kg
half-life ([4]; iv, I.V., read-out: Rat I.V. T1/2 (converted)): 2.1 h
bioavailability ([4]; po, 2 mg/kg, P.O., 2 mpk, read-out: Rat P.O. (2 mpk) % F): 59%
AUC(0-inf) ([4]; po, 2 mg/kg, P.O., 2 mpk, read-out: Rat P.O. (2 mpk) AUC0-inf): 2810 ng·h/mL
AUC(0-t) ([4]; po, 2 mg/kg, P.O., 2 mpk, read-out: Rat P.O. (2 mpk) AUC0-t): 2800 ng·h/mL
half-life ([4]; po, 2 mpk, P.O., read-out: Rat P.O. T1/2 (converted)): 2 h
AUC at ED50 ([5]; Table 6, HCl salt Run #3): 338 ng·h/mL
average AUC at the ED50 ([5]; average of HCl salt studies of Tables 4 and 6 and free base study of Table 3): 313 ng·h/mL
AUC ([5]; 0.03 mg/kg, 0.03 mg/kg daily): 109 ng·h/mL
AUC ([5]; 0.1 mg/kg, 0.1 mg/kg daily): 203 ng·h/mL
AUC ([5]; 0.3 mg/kg, 0.3 mg/kg daily): 730 ng·h/mL
AUC ([5]; 1 mg/kg, 1.0 mg/kg daily): 2370 ng·h/mL
Human Liver Microsome [6]: 17 µL/min/mg
ED50 ([7]; Rattus norvegicus, Table 3, free base, number of vessels, read-out: ED50): 0.16 mg/kg
ED50 ([7]; Rattus norvegicus, Table 6, HCl salt Run #3, number of vessels, read-out: ED50): 0.14 mg/kg
Average # of Vessels ([7]; Table 3, free base, VEGF disc + 0.03 mg/kg daily): 24.5
Average # of Vessels ([7]; Table 3, free base, VEGF disc + 0.1 mg/kg daily): 24.9
Average # of Vessels ([7]; Table 3, free base, VEGF disc + 0.3 mg/kg daily): 5.4
Average # of Vessels ([7]; Table 3, free base, VEGF disc + 1.0 mg/kg daily): 2.3
ED50 ([7]; free base, review of Tables 2 and 3): 0.16 mpk
IC50 [8]: 2 nM
